Assay results from ChEMBL document CHEMBL2203018, “Tyrosine urea muscarinic acetylcholine receptor antagonists: achiral quaternary ammonium groups” (Bioorg Med Chem Lett, 2012).

What was measured:
[1] = biological target: T1, Muscarinic acetylcholine receptor M1 (Homo sapiens, UniProt P11229); test: Antagonist activity at human muscarinic M1 receptor expressed in CHO cells assessed as inhibition of acetylcholine-induced calcium mobilization by FLIPR assay; format: functional, cell-based
T1 sequence (P11229 whole entry): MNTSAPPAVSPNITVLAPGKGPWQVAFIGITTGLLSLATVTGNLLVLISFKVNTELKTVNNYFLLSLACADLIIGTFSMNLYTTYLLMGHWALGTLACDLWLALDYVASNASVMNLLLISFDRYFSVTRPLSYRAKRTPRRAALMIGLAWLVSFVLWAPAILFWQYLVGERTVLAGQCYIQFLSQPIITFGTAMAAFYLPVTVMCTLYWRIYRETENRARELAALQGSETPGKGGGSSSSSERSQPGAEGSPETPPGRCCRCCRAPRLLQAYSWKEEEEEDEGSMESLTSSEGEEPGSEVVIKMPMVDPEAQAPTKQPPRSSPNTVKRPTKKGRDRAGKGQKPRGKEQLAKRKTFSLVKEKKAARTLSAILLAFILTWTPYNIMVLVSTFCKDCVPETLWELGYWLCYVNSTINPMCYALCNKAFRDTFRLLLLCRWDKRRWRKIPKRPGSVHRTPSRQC

[2] = biological target: Muscarinic acetylcholine receptor M3 (Homo sapiens, UniProt P20309); test: Antagonist activity at human muscarinic M3 receptor expressed in CHO cells assessed as inhibition of acetylcholine-induced calcium mobilization by FLIPR assay; format: functional, cell-based
Chain of Muscarinic acetylcholine receptor M3 (P20309 whole entry): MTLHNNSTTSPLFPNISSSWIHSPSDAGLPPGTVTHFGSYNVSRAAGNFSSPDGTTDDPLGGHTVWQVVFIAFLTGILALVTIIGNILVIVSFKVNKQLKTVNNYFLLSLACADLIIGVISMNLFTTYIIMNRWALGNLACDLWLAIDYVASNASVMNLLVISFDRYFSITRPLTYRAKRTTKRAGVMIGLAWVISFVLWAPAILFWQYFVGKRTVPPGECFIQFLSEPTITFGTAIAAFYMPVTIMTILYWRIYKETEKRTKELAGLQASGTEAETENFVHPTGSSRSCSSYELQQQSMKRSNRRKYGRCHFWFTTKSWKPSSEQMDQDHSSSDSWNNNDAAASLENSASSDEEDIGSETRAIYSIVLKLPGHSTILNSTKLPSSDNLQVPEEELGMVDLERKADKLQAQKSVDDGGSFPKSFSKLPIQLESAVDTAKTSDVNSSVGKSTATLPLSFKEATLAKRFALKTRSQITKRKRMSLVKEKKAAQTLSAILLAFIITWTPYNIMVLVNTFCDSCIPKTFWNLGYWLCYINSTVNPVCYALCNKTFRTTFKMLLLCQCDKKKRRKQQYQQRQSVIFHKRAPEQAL

[3] = biological target: T2, Muscarinic acetylcholine receptor M2 (Homo sapiens, UniProt P08172); test: Antagonist activity at human muscarinic M2 receptor expressed in CHO cells assessed as inhibition of acetylcholine-induced calcium mobilization by FLIPR assay; format: functional, cell-based
T2 sequence (P08172 whole entry): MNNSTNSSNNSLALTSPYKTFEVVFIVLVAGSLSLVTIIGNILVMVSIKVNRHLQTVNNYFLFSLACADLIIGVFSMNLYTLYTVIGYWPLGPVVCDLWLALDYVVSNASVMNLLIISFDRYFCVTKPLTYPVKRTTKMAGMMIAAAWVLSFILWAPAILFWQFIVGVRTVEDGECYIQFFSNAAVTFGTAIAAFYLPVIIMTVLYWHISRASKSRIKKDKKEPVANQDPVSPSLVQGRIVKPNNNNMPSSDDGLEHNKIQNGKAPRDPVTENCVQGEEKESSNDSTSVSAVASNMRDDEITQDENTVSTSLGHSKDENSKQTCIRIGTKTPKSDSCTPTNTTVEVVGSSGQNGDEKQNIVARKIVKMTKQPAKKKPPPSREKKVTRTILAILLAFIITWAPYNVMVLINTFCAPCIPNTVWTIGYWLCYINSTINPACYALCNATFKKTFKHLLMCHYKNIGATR

Mus musculus [4] = test: Inhibition of methacholine-induced bronchoconstriction in Balb/c mouse at 5 ug administered intranasally after 5 hrs; format: functional
Mus musculus [5] = test: Inhibition of methacholine-induced bronchoconstriction in Balb/c mouse at 5 ug administered intranasally after 48 hrs; format: functional
Mus musculus [6] = test: Inhibition of methacholine-induced bronchoconstriction in Balb/c mouse at 5 ug administered intranasally after 24 hrs; format: functional

Structure (SMILES) | IC50 [1] | IC50 [2] | IC50 [3] | inhibition (INH) (Mus musculus [4]) | inhibition (INH) (Mus musculus [5]) | inhibition (INH) (Mus musculus [6])
CC[N+](CC)(CCNC(=O)[C@H](Cc1ccc(O)cc1)NC(=O)Nc1ccc(C(=O)OC(C)C)cc1)Cc1ccc(Cl)cc1 | 584 nM | 223 nM | 311 nM | – | – | –
CC(C)OC(=O)c1ccc(NC(=O)N[C@@H](Cc2ccc(O)cc2)C(=O)N2CC[N+](Cc3ccc(Cl)cc3)(C(C)C)CC2)cc1 | 893 nM | 27.5 nM | 97.9 nM | – | – | –
CC(C)OC(=O)c1ccc(NC(=O)N[C@@H](Cc2ccc(O)cc2)C(=O)N2CCC[C@@H]([N+](C)(C)Cc3ccc(Cl)cc3)C2)cc1 | 1900 nM | 13.3 nM | 832 nM | – | – | –
CC(C)OC(=O)c1ccc(NC(=O)N[C@@H](Cc2ccc(O)cc2)C(=O)NCC[N+](C)(C)C23CC4CC(CC(C4)C2)C3)cc1 | 13.1 nM | 6.1 nM | 13.1 nM | – | – | –
CC(C)OC(=O)c1ccc(NC(=O)N[C@@H](Cc2ccc(O)cc2)C(=O)N(C)Cc2n(C)cc[n+]2C)cc1 | > 3300 nM | > 3300 nM | > 3300 nM | – | – | –
Cc1cn2cc(CNC(=O)[C@H](Cc3ccc(O)cc3)NC(=O)Nc3ccc(C(=O)OC(C)C)cc3)[n+](Cc3ccc4ccccc4c3)c2s1.O=C([O-])C(F)(F)F | – | – | – | 78% | 69% | –
Cc1csc2n(Cc3ccc(Cl)cc3)c(CNC(=O)[C@H](Cc3ccc(O)cc3)NC(=O)Nc3ccc(C(=O)OC(C)C)cc3)c[n+]12 | < 5 nM | < 5 nM | < 5 nM | – | – | –
CC(C)OC(=O)c1ccc(NC(=O)N[C@@H](Cc2ccc(O)cc2)C(=O)N[C@H]2CCC[N+](C)(Cc3ccc(Cl)cc3)C2)cc1 (some centres undefined) | – | – | – | 94% | 0% | 38%
CC(C)OC(=O)c1ccc(NC(=O)N[C@@H](Cc2ccc(O)cc2)C(=O)N2CC[N+](Cc3ccc(Cl)cc3)(CC3CCCCC3)CC2)cc1 | 141 nM | < 5 nM | 58.8 nM | – | – | –
CC(C)OC(=O)c1ccc(NC(=O)N[C@@H](Cc2ccc(O)cc2)C(=O)N2CC[N+](C)(CCc3ccccc3)CC2)cc1 | 1350 nM | < 5 nM | 860 nM | – | – | –
CC(C)OC(=O)c1ccc(NC(=O)N[C@@H](Cc2ccc(O)cc2)C(=O)N2CC[N+](C)(Cc3ccc4c(c3)OCO4)CC2)cc1 | > 3300 nM | 10.2 nM | 427 nM | – | – | –
CC[N+]1(C2CCN(C(=O)[C@H](Cc3ccc(O)cc3)NC(=O)Nc3ccc(C(=O)OC(C)C)cc3)CC2)CCCC1 | > 3300 nM | 579 nM | 556 nM | – | – | –
Cc1c[n+]2cc(CNC(=O)[C@H](Cc3ccc(O)cc3)NC(=O)Nc3ccc(C(=O)OC(C)C)cc3)n(C)c2s1 | < 5 nM | < 5 nM | < 5 nM | – | – | –
Cc1csc2n(C)c(CNC(=O)[C@H](Cc3ccc(O)cc3)NC(=O)Nc3ccc(C(=O)OC(C)C)cc3)c[n+]12 | < 5 nM | < 5 nM | < 5 nM | – | – | –
CC(C)OC(=O)c1ccc(NC(=O)N[C@@H](Cc2ccc(O)cc2)C(=O)NCC[N+]2(Cc3ccc(Cl)cc3)CCCC2)cc1 | 418 nM | 44.9 nM | 108 nM | – | – | –
CC(C)OC(=O)c1ccc(NC(=O)N[C@@H](Cc2ccc(O)cc2)C(=O)NCC(C)(C)C[N+](C)(C)Cc2ccc(Cl)cc2)cc1 | 476 nM | < 5 nM | 87.6 nM | – | – | –

Structure (SMILES) | IC50 [1] | IC50 [2] | IC50 [3] | inhibition (INH) (Mus musculus [4]) | inhibition (INH) (Mus musculus [5]) | inhibition (INH) (Mus musculus [6])
CC(C)OC(=O)c1ccc(NC(=O)N[C@@H](Cc2ccc(O)cc2)C(=O)N2CC[N+](Cc3ccc(Cl)cc3)(CC3CCc4ccccc4C3)CC2)cc1 (some centres undefined) | 462 nM | < 5 nM | 41.2 nM | – | – | –
CC(C)OC(=O)c1ccc(NC(=O)N[C@@H](Cc2ccc(O)cc2)C(=O)NCc2n(Cc3ccc(Cl)cc3)cc[n+]2Cc2ccc(Cl)cc2)cc1 | 327 nM | 51.9 nM | 181 nM | – | – | –
CC(C)OC(=O)c1ccc(NC(=O)N[C@@H](Cc2ccc(O)cc2)C(=O)NCCC[N+](C)(C)Cc2ccc(Cl)cc2)cc1 | 757 nM | 197 nM | 178 nM | – | – | –
CC(C)OC(=O)c1ccc(NC(=O)N[C@@H](Cc2ccc(O)cc2)C(=O)N(CC[N+](C)(C)C)Cc2ccccc2)cc1 | > 3300 nM | > 3300 nM | > 3300 nM | – | – | –
CC(C)OC(=O)c1ccc(NC(=O)N[C@@H](Cc2ccc(O)cc2)C(=O)NCC[N+]2(C)CCCCCC2)cc1 | > 3300 nM | 159 nM | 328 nM | – | – | –
CC(C)OC(=O)c1ccc(NC(=O)N[C@@H](Cc2ccc(O)cc2)C(=O)NCC[N+](C)(C)Cc2ccc(Cl)cc2)cc1 | 1430 nM | 143 nM | 549 nM | – | – | –
CC(C)OC(=O)c1ccc(NC(=O)N[C@@H](Cc2ccc(O)cc2)C(=O)N2CCC[C@H]([N+](C)(C)Cc3ccc(Cl)cc3)C2)cc1 | 1120 nM | 45.3 nM | 105 nM | – | – | –
Cc1c[n+]2cc(CNC(=O)[C@H](Cc3ccc(O)cc3)NC(=O)Nc3ccc(C(=O)OC(C)C)cc3)n(Cc3ccc(C(F)(F)F)cc3)c2s1.O=C([O-])C(F)(F)F | – | – | – | 89% | – | 12%
CC(C)OC(=O)c1ccc(NC(=O)N[C@@H](Cc2ccc(O)cc2)C(=O)N2CC[N+](C)(CC3CCCCC3)CC2)cc1 | 2500 nM | 50.2 nM | 191 nM | – | – | –
CC(C)OC(=O)c1ccc(NC(=O)N[C@@H](Cc2ccc(O)cc2)C(=O)N(C)Cc2n(C)cc[n+]2Cc2ccc(Cl)cc2)cc1 | > 3300 nM | 392 nM | 999 nM | – | – | –
CC(C)OC(=O)c1ccc(NC(=O)N[C@@H](Cc2ccc(O)cc2)C(=O)NCC[N+](C)(Cc2ccc(Cl)cc2)Cc2ccc(Cl)cc2)cc1 | 379 nM | 70.4 nM | 405 nM | – | – | –
CC(C)OC(=O)c1ccc(NC(=O)N[C@@H](Cc2ccc(O)cc2)C(=O)NCC[N+](C)(C(C)C)C(C)C)cc1 | > 3300 nM | 237 nM | 337 nM | – | – | –
CC(C)OC(=O)c1ccc(NC(=O)N[C@@H](Cc2ccc(O)cc2)C(=O)NCC[N+](C)(Cc2ccc3ccccc3c2)Cc2ccc3ccccc3c2)cc1 | 948 nM | 82.2 nM | 15 nM | – | – | –
CC(C)OC(=O)c1ccc(NC(=O)N[C@@H](Cc2ccc(O)cc2)C(=O)NCCC[N+](C)(C)Cc2ccc3ccccc3c2)cc1 | 734 nM | 417 nM | 411 nM | – | – | –
CC(C)OC(=O)c1ccc(NC(=O)N[C@@H](Cc2ccc(O)cc2)C(=O)N2CCC([N+]3(Cc4ccc(Cl)cc4)CCCC3)CC2)cc1 | 882 nM | 68.9 nM | 94.6 nM | – | – | –
CC(C)OC(=O)c1ccc(NC(=O)N[C@@H](Cc2ccc(O)cc2)C(=O)NCC[N+]2(Cc3ccc(Cl)cc3)CCCCC2)cc1 | 199 nM | 33.4 nM | 82.5 nM | – | – | –
